Tests used:
KRas^G12V = biological target: T1, KRas^G12V (Homo sapiens, UniProt P01116, G12V); assay: KRas binding assay (TR-FRET tracer displacement), KRas G12V
T1 construct: Biotinylated KRas (corresponding to amino acids 1-169, produced at Accelegan Inc.); biotin (biotinylated); purchased Accelegan Inc

[1] = tested on: KRas-mediated phosphorylation of ERK in AsPC-1 cells; assay: Inhibition of KRas-mediated phosphorylation of ERK (Cisbio HTRF pERK), AsPC-1 cells; type: cell-based; conditions: Homo sapiens, ASPC1, AsPC-1 cells; HTRF pERK
Description: (§1) Inhibition of KRas Phosphorylation of ERK (HTRF) by Exemplary Compounds of Formula (I) Cisbio HTRF Advanced PERK Assay Catalog #64[…] […] Add 10 mL of media to stop trypsinizing. Pipette the cells into a conical bottom 50 mL centrifuge tube and centrifuge 5 min×1000 rpm. […] Re-suspend the cell pellet in media, take a cell count, and then adjust the cell density using fresh media. […] Seed 6,000 cells into cell culture plate with 50 μL media. […] Use Tecan to complete the compound addition. Compounds start from 10 uM top, 3-fold dilution, and 10 doses. The final DMSO concentration is 0.8%. Dispensed 0.2 uM Trametinib as Min control. […] Incubate cell plate for 3 hrs in the incubator. […] Dilute 1 volume of 4× lysis buffer with 3 volumes of deionized water. […] Keep lysis buffer on the ice. […] At the end of the compound treatment, flick-off the media. […] Add 35 μL of lysis buffer per well using a Multidrop Combi. Then place on a plate agitator shaking at 300 rpm at 4° C. for 40 mins. […] Make up the HTRF antibody buffer. For each assay plate, mix 50 μL of d2-conjugate antibody with 950 μL of detection buffer. Similarly, mix 50 μL of Cryptate antibody with 950 μL of detection buffer. Then mix the two diluted antibodies together. […] Dispense 3.4 μL the antibody buffer to wells of an empty assay plate. Seal the plate and centrifuge plate 30 sec×1000 rpm. […] At the end of the 4° C. lysis, centrifuge the lysate plates 3 mins×1500 rpm. […] Use the Bravo to transfer 13.6 μL of lysate from cell culture plate to assay plate. Then incubate assay plate for 2 hrs at room temperature. 8. At the end of incubation, read plate on the Envision after centrifuging plate 30 sec×1000 rpm.

[2] = tested on: KRas-mediated phosphorylation of ERK in H727 cells; assay: Inhibition of KRas-mediated phosphorylation of ERK (Cisbio HTRF pERK), H727 cells; type: cell-based; conditions: Homo sapiens, NCI-H727, H727 cells; HTRF pERK
Description: as §1

KRas^G12R = biological target: T2, KRas^G12R (Homo sapiens, UniProt P01116, G12R); assay: KRas binding assay (TR-FRET tracer displacement), KRas G12R
T2 construct: Biotinylated KRas (corresponding to amino acids 1-169, produced at Accelegan Inc.); biotin (biotinylated); purchased Accelegan Inc

KRas^G12D = biological target: T3, KRas^G12D (Homo sapiens, UniProt P01116, G12D); assay: KRas binding assay (TR-FRET tracer displacement), KRas G12D
T3 construct: Biotinylated KRas (corresponding to amino acids 1-169, produced at Accelegan Inc.); biotin (biotinylated); purchased Accelegan Inc
T3 sequence (P01116 1-169 isoform P01116-2 G12D): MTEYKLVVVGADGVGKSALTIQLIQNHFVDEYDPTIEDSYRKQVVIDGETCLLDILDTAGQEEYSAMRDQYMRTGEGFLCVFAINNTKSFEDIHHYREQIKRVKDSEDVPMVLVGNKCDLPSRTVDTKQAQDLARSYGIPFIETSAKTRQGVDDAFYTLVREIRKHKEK

T2 sequence (P01116 1-169 isoform P01116-2 G12R): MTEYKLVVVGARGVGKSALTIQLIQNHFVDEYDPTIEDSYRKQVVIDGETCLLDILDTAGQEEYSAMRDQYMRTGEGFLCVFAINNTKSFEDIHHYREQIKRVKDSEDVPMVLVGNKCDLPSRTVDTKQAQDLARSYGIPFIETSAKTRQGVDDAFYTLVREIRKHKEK
T1 sequence (P01116 1-169 isoform P01116-2 G12V): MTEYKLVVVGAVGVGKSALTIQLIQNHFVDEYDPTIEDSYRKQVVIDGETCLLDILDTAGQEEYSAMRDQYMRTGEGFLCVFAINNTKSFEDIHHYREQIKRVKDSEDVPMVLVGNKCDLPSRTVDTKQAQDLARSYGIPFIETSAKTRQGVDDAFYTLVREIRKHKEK

Row | IC50 (KRas^G12V) [nM] | IC50 [1] [nM] | IC50 [2] [nM] | IC50 (KRas^G12R) [nM] | IC50 (KRas^G12D) [nM] | SMILES
1 | 2 | > 10000 | 2510 | < 2 | 10 | CCc1c(F)ccc2cc(O)cc(-c3ncc4c(NCC5CNC(=O)CO5)nc(OC[C@@]56CCCN5C[C@H](F)C6)nc4c3F)c12 (stereo partly drawn) [Example 556, 6-(((7-(8-ethyl-7-fluoro-3-hydroxynaphthalen-1-yl)-8-fluoro-2-(((2R,7aS)-2-fluorotetrahydro-1H-pyrrolizin-7a(5H)-yl)methoxy)pyrido[4,3-d]pyrimidin-4-yl)amino)methyl) morpholin-3-one]
2 | 16 | > 10000 | > 10000 | 31 | 640 | CCc1c(F)ccc2cc(O)cc(-c3ncc4c(N5CCC(n6cnnc6)C5)nc(OC[C@@]56CCCN5C[C@H](F)C6)nc4c3F)c12 (stereo partly drawn) [Example 564, 4-(4-(3-(4H-1,2,4-triazol-4-yl)pyrrolidin-1-yl)-8-fluoro-2-(((2R,7aS)-2-fluorotetrahydro-1H-pyrrolizin-7a(5H)-yl)methoxy)pyrido[4,3-d]pyrimidin-7-yl)-5-ethyl-6-fluoronaphthalen-2-ol]
3 | 2430 | > 10000 | > 10000 | 1460 | 682 | CCc1c(F)ccc2cc(O)cc(-c3ncc4c(N5CCN6C[C@@H](O)C[C@H]6C5)nc(OC[C@@]56CCCN5C[C@H](F)C6)nc4c3F)c12 [Example 567, (7S,8aS)-2-(7-(8-ethyl-7-fluoro-3-hydroxynaphthalen-1-yl)-8-fluoro-2-(((2R,7aS)-2-fluorohexahydro-1H-pyrrolizin-7a-yl)methoxy)pyrido[4,3-d]pyrimidin-4-yl) octahydropyrrolo[1,2-a]pyrazin-7-ol]
4 | 266 | > 10000 | 4190 | 162 | 1970 | CCc1c(F)ccc2cc(O)cc(-c3ncc4c(N5CC6(CO)CC5CCO6)nc(OC[C@@]56CCCN5C[C@H](F)C6)nc4c3F)c12 (stereo partly drawn) [Example 572, 5-ethyl-6-fluoro-4-(8-fluoro-2-(((2R,7aS)-2-fluorohexahydro-1H-pyrrolizin-7a-yl)methoxy)-4-(1-(hydroxymethyl)-2-oxa-6-azabicyclo[3.2.1]octan-6-yl)pyrido[4,3-d]pyrimidin-7-yl)naphthalen-2-ol]
5 | 606 | 8440 | > 10000 | 727 | 29 | CCc1c(F)ccc2cc(O)cc(-c3ncc4c(N[C@H](C)CN5CC(C)(O)C5)nc(OC[C@@]56CCCN5C[C@H](F)C6)nc4c3F)c12 [Example 577, 1-((R)-2-((7-(8-ethyl-7-fluoro-3-hydroxynaphthalen-1-yl)-8-fluoro-2-(((2R,7aS)-2-fluorohexahydro-1H-pyrrolizin-7a-yl)methoxy)pyrido[4,3-d]pyrimidin-4-yl)amino)propyl)-3-methylazetidin-3-ol]
6 | 103 | 4610 | 2060 | 76 | 434 | CCc1c(F)ccc2cc(O)cc(-c3ncc4c(NC56CCC(C#N)(CC5)CC6)nc(OC[C@@]56CCCN5C[C@H](F)C6)nc4c3F)c12 [Example 585, 4-((7-(8-ethyl-7-fluoro-3-hydroxynaphthalen-1-yl)-8-fluoro-2-(((2R,7aS)-2-fluorohexahydro-1H-pyrrolizin-7a-yl)methoxy)pyrido[4,3-d]pyrimidin-4-yl)amino)bicyclo[2.2.2]octane-1-carbonitrile]
7 | 314 | > 10000 | > 10000 | 621 | 1780 | CCc1c(F)ccc2cc(O)cc(-c3ncc4c(N5Cc6n[nH]c(C(N)=O)c6C5)nc(OC[C@@]56CCCN5C[C@H](F)C6)nc4c3F)c12 [Example 588, 5-(7-(8-ethyl-7-fluoro-3-hydroxynaphthalen-1-yl)-8-fluoro-2-(((2R,7aS)-2-fluorotetrahydro-1H-pyrrolizin-7a(5H)-yl)methoxy)pyrido[4,3-d]pyrimidin-4-yl)-2,4,5,6-tetrahydropyrrolo[3,4-c]pyrazole-3-carboxamide]
8 | 16 | 1540 | 731 | 12 | 38 | CCc1c(F)ccc2cc(O)cc(-c3ncc4c(N5CCCC6(CC=CCO6)C5)nc(OC[C@@]56CCCN5C[C@H](F)C6)nc4c3F)c12 (stereo partly drawn) [Example 589, 5-ethyl-6-fluoro-4-(8-fluoro-2-(((2R,7aS)-2-fluorotetrahydro-1H-pyrrolizin-7a(5H)-yl)methoxy)-4-(1-oxa-8-azaspiro[5.5]undec-3-en-8-yl)pyrido[4,3-d]pyrimidin-7-yl)naphthalen-2-ol]
9 | 94 | > 10000 | 2450 | 434 | 805 | CCc1c(F)ccc2cc(O)cc(-c3ncc4c(N5CCC(CC6CCOC6)C5)nc(OC[C@@]56CCCN5C[C@H](F)C6)nc4c3F)c12 (stereo partly drawn) [Example 596, 5-ethyl-6-fluoro-4-(8-fluoro-2-(((2R,7aS)-2-fluorohexahydro-1H-pyrrolizin-7a-yl)methoxy)-4-(3-((tetrahydrofuran-3-yl)methyl)pyrrolidin-1-yl)pyrido[4,3-d]pyrimidin-7-yl)naphthalen-2-ol]
10 | 82 | 4800 | 2360 | 194 | 867 | CCc1c(F)ccc2cc(O)cc(-c3ncc4c(N5CCC(CC6CCCO6)C5)nc(OC[C@@]56CCCN5C[C@H](F)C6)nc4c3F)c12 (stereo partly drawn) [Example 597, 5-ethyl-6-fluoro-4-(8-fluoro-2-(((2R,7aS)-2-fluorotetrahydro-1H-pyrrolizin-7a(5H)-yl)methoxy)-4-(3-((tetrahydrofuran-2-yl)methyl)pyrrolidin-1-yl)pyrido[4,3-d]pyrimidin-7-yl)naphthalen-2-ol]
11 | 84 | > 10000 | > 10000 | 66 | 820 | CCc1c(F)ccc2cc(O)cc(-c3ncc4c(N5CCC6(CNC(=O)OC6)C5)nc(OC[C@@]56CCCN5C[C@H](F)C6)nc4c3F)c12 (stereo partly drawn) [Example 598, 2-(7-(8-ethyl-7-fluoro-3-hydroxynaphthalen-1-yl)-8-fluoro-2-(((2R,7aS)-2-fluorotetrahydro-1H-pyrrolizin-7a(5H)-yl)methoxy)pyrido[4,3-d]pyrimidin-4-yl)-7-oxa-2,9-diazaspiro[4.5]decan-8-one]
12 | 880 | > 10000 | > 10000 | 886 | 5040 | CCc1c(F)ccc2cc(O)cc(-c3ncc4c(N5CCC6(CC5)OCCC6O)nc(OC[C@@]56CCCN5C[C@H](F)C6)nc4c3F)c12 (stereo partly drawn) [Example 600, 8-(7-(8-ethyl-7-fluoro-3-hydroxynaphthalen-1-yl)-8-fluoro-2-(((2R,7aS)-2-fluorotetrahydro-1H-pyrrolizin-7a(5H)-yl)methoxy)pyrido[4,3-d]pyrimidin-4-yl)-1-oxa-8-azaspiro[4.5]decan-4-ol]
13 | 243 | 5460 | 3870 | 161 | 484 | CCc1c(F)ccc2cc(O)cc(-c3ncc4c(N5CCOC[C@@](C)(COC)C5)nc(OC[C@@]56CCCN5C[C@H](F)C6)nc4c3F)c12 [Example 602, 5-ethyl-6-fluoro-4-(8-fluoro-2-(((2R,7aS)-2-fluorotetrahydro-1H-pyrrolizin-7a(5H)-yl)methoxy)-4-((R)-6-(methoxymethyl)-6-methyl-1,4-oxazepan-4-yl)pyrido[4,3-d]pyrimidin-7-yl)naphthalen-2-ol]

Row | SMILES | IC50 (KRas^G12V) [nM] | IC50 [1] [nM] | IC50 [2] [nM] | IC50 (KRas^G12R) [nM] | IC50 (KRas^G12D) [nM]
14 | CCc1c(F)ccc2cc(O)cc(-c3ncc4c(N5CC6(C)CC(CO)(C5)C6)nc(OC[C@@]56CCCN5C[C@H](F)C6)nc4c3F)c12 [Example 565, 5-ethyl-6-fluoro-4-(8-fluoro-2-(((2R,7aS)-2-fluorohexahydro-1H-pyrrolizin-7a-yl)methoxy)-4-(1-(hydroxymethyl)-5-methyl-3-azabicyclo[3.1.1]heptan-3-yl)pyrido[4,3-d]pyrimidin-7-yl)naphthalen-2-ol] | 908 | > 10000 | > 10000 | 1030 | 1160
15 | CCc1c(F)ccc2cc(O)cc(-c3ncc4c(N5C6CNC(=O)CC5COC6)nc(OC[C@@]56CCCN5C[C@H](F)C6)nc4c3F)c12 (stereo partly drawn) [Example 599, 10-(7-(8-ethyl-7-fluoro-3-hydroxynaphthalen-1-yl)-8-fluoro-2-(((2R,7aS)-2-fluorohexahydro-1H-pyrrolizin-7a-yl)methoxy)pyrido[4,3-d]pyrimidin-4-yl)-8-oxa-3,10-diazabicyclo[4.3.1]decan-4-one] | 85 | > 10000 | > 10000 | 23 | 2120

— patent US20260015350A1, “AZAQUINAZOLINE PAN-KRAS INHIBITORS” (Mirati Therapeutics, Inc., priority 2022, published 2026)
